The values below come from publication PMC7708037, “Targeting OGG1 arrests cancer cell proliferation by inducing replication stress” (Nucleic Acids Research, 2020).

The test system of data set [1] is peripheral blood mononuclear cells (PBMCs). In words: PBMC proliferation / tolerance. It counts as cell-based. The protocol:
Peripheral blood mononuclear Cells (PBMC) were isolated from peripheral whole blood from controls using Histopaque®-1077 (Sigma-Aldrich, San Luis, MO, USA) following the manufacturer's instructions. Briefly, peripheral blood was collected in heparin and diluted with equal amount of PBS. Next, blood was centrifuged with Histopaque®-1077 at 400 × g for 30 min at room temperature and the PBMC layer was recovered. All steps were processed within 4 h after blood extraction.
PMBCs and CD34- fraction (CB) were cultured in the presence of PHA-L (Sigma-Aldrich, ref: 11249738001) or Dynabeads® Human T-Activator CD3/CD28 (Thermofisher scientific, ref: 11131D) for the activation and expansion of human T cells according to the manufacturer's instructions. […]
experiments (Supplementary Table S1).
PBMCs from two donors were activated using Dynabeads and exposed to 10 µM TH5487 during 72 h […]
to follow cell numbers. […] CD3+ T-cells were activated with Dynabeads and treated with DMSO or TH5487 for 6 days, or 25 µM camptothecin for 24 h as a technical control. Survival was assessed by flow cytometry. Data are three technical replicates from one donor, representative of four individuals. Paired, two-sided T-tests were used to assess significance (ns, non-significant, ****, P<0.0001). I. to K. Gating strategy for identification of dead cells. CD3+ cells were stained with Annexin V and Sytox Blue. […]

On the set-up of data set [2]: method as in PMID 30442810. The following applies: cited from earlier work.
Data set [3] concerns replication fork rate in A3 cells. In words: DNA fibre assay. It is filed as cell-based, human. Particulars: 10 μM, 48 and 72 h. The protocol: A3 Cells were exposed to either 0.1% DMSO or 10 μM TH5487 for the indicated times, pulse-labeled with 25 μM 5-chloro-2′-deoxyuridine (CldU) for 30 min, washed with medium and pulse-labeled with 250 μM 5-iodo-2′-deoxyuridine (IdU) for 30 min. Alternatively, control or OGG1 shRNA expression was induced with 1 μg/ml doxycyline for 48 h or 96 h before pulse labelling. CldU was detected by incubating acid-treated fiber spreads in Ibidi μ-Slide VI 0.4 (Ibidi, 80606) with rat anti-BrdU monoclonal antibody (AbD Serotec; cat# MCA2060), whereas IdU was detected using mouse anti-BrdU monoclonal antibody (BD Biosciences; cat# 347580) for 1 h at 37°C. […] The lengths of red (AF 555) or green (AF 488) labeled patches were measured using the ImageJ software (National Institutes of Health; http://rsbweb.nih.gov/ij/) and arbitrary length values were converted into micrometers.
Figure 5. […] A3 cells were treated with 20 mM KBrO3 for 1 h or with 10 μM TH5487 for the indicated times, and the amount of genomic 8-oxodG was quantified with LC-MS/MS. […] A3 cells were treated with 10 μM TH5487 for 72 h and strand-breaks and OGG1 substrate lesions were analyzed with the OGG1-modified Comet assay. […] Cells were treated as in B, and the tail moment of the cells were analyzed using blinded automatic analysis (n = 200 per condition from two independent experiments). […] At least 300 forks were scored per condition. […]

For the compound `O=C(Nc1ccc(I)cc1)N1CCC(n2c(=O)[nH]c3c(Br)cccc32)CC1` [TH5487], the “Tolerance by resting and activated PBMCs” value in data set [1] (10 μM, healthy donors) is listed as “well tolerated”. For the same compound, the “Proliferation of activated PBMCs” value in data set [1] (Dynabeads-activated PBMCs from two donors, 10 µM, 72 h) is given as “does not affect proliferation”. Also, in data set [2], the “Fraction associated with plasma proteins” value is recorded as “more than 99%”. Besides, the Replication fork rate result in data set [3] was “marked reduction”.
